Data: ChEMBL document CHEMBL1208707, “T-type calcium channel blockers: spiro-piperidine azetidines and azetidinones-optimization, design and synthesis” (Bioorg Med Chem Lett, 2010)
Activity calls are given as the source filed them. No cut-off for these calls is given here.

How the values were obtained:
[1] = Permeability across human Caco-2 cells; type: ADME, cell-based; conditions: read-out: permeability
[2] = biological target: T1, Cytochrome P450 2D6 (Homo sapiens, UniProt P10635); assay: Inhibition of CYP2D6 preincubated with compound; type: ADME
[3] = biological target: T1, Cytochrome P450 2D6; assay: Inhibition of CYP2D6 coincubated with compound; type: ADME
[4] = biological target: Transient receptor potential cation channel subfamily V member 1 (Homo sapiens) (UniProt Q8NER1); assay: Inhibition of TRPV1 expressed in HEK293 assessed as capsaicin activation cells at 3.3 ug/mL by FLIPR assay; type: cell-based
[5] = biological target: T2, Cytochrome P450 2C9 (Homo sapiens, UniProt P11712); assay: Inhibition of CYP2C9 preincubated with compound; type: ADME; conditions: read-out: INH
[6] = biological target: Cytochrome P450 3A4 (Homo sapiens, UniProt P08684); assay: Inhibition of CYP3A4 coincubated with compound; type: ADME; conditions: read-out: INH
[7] = biological target: T3, Voltage-dependent T-type calcium channel subunit alpha-1H (Homo sapiens, UniProt O95180); assay: Inhibition of human CaV3.2 expressed in HEK293 cells at -100 mV membrane potential by whole cell path clamp method; type: cell-based
[8] = biological target: T2, Cytochrome P450 2C9; assay: Inhibition of CYP2C9 coincubated with compound; type: ADME; conditions: read-out: INH
[9] = biological target: T3, Voltage-dependent T-type calcium channel subunit alpha-1H; assay: Inhibition of human CaV3.2 expressed in HEK293 cells at -100 mV membrane potential by Ionworks HT assay; type: cell-based
[10] = (§1) Protein binding in rat plasma; type: ADME, cell-free; conditions: read-out: PPB (converted)
[11] = AUC in po dosed rat; type: ADME, organism-based; conditions: plasma
[12] = test system: Plasma; assay: as §1; type: ADME, cell-free
[13] = test system: Rattus norvegicus; assay: Plasma concentration in SNL rat at 100 mg/kg, po; type: ADME, organism-based; parameters: dose 100 mg/kg, route oral; conditions: in vivo
[14] = organism: Homo sapiens; assay: Protein binding in human plasma; conditions: read-out: PPB (converted)
[15] = test system: Rattus norvegicus; assay: In vivo inhibition of TRPV1 activation in SNL rat at 100 mg/kg, po; type: functional, organism-based; parameters: dose 100 mg/kg
[16] = test system: Rattus norvegicus; assay: In vivo inhibition of TRPV1 activation in SNL rat at 50 mg/kg, po; type: functional, organism-based; parameters: dose 50 mg/kg
[17] = test system: Rattus norvegicus; assay: In vivo inhibition of TRPV1 activation in SNL rat at 10 mg/kg, po; type: functional, organism-based; parameters: dose 10 mg/kg
[18] = test system: Rattus norvegicus; assay: In vivo inhibition of TRPV1 activation in SNL rat at 30 mg/kg, po; type: functional, organism-based; parameters: dose 30 mg/kg
[19] = test system: Rattus norvegicus; assay: In vivo inhibition of TRPV1 activation in SNL rat at 30 and 60 mg/kg, po; type: functional, organism-based; parameters: dose 60 mg/kg
[20] = test system: Rattus norvegicus; assay: Plasma concentration in SNL rat at 10 mg/kg, po; type: ADME, organism-based; parameters: dose 10 mg/kg, route oral; conditions: in vivo

T2 sequence (P11712 whole entry): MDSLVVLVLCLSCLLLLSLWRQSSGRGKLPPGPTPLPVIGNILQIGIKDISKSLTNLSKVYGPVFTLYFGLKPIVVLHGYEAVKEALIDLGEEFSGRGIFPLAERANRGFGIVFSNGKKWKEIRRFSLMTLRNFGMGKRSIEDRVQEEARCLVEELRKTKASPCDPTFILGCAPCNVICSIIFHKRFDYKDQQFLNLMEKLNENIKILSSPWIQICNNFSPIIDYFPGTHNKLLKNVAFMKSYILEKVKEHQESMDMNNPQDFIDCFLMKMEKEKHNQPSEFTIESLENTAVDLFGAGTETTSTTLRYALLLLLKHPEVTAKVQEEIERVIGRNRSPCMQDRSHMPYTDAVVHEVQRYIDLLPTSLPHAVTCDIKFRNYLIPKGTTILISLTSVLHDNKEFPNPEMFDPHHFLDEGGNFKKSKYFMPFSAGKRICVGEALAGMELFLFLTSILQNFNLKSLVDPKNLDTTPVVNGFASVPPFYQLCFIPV
T3 sequence (O95180 whole entry): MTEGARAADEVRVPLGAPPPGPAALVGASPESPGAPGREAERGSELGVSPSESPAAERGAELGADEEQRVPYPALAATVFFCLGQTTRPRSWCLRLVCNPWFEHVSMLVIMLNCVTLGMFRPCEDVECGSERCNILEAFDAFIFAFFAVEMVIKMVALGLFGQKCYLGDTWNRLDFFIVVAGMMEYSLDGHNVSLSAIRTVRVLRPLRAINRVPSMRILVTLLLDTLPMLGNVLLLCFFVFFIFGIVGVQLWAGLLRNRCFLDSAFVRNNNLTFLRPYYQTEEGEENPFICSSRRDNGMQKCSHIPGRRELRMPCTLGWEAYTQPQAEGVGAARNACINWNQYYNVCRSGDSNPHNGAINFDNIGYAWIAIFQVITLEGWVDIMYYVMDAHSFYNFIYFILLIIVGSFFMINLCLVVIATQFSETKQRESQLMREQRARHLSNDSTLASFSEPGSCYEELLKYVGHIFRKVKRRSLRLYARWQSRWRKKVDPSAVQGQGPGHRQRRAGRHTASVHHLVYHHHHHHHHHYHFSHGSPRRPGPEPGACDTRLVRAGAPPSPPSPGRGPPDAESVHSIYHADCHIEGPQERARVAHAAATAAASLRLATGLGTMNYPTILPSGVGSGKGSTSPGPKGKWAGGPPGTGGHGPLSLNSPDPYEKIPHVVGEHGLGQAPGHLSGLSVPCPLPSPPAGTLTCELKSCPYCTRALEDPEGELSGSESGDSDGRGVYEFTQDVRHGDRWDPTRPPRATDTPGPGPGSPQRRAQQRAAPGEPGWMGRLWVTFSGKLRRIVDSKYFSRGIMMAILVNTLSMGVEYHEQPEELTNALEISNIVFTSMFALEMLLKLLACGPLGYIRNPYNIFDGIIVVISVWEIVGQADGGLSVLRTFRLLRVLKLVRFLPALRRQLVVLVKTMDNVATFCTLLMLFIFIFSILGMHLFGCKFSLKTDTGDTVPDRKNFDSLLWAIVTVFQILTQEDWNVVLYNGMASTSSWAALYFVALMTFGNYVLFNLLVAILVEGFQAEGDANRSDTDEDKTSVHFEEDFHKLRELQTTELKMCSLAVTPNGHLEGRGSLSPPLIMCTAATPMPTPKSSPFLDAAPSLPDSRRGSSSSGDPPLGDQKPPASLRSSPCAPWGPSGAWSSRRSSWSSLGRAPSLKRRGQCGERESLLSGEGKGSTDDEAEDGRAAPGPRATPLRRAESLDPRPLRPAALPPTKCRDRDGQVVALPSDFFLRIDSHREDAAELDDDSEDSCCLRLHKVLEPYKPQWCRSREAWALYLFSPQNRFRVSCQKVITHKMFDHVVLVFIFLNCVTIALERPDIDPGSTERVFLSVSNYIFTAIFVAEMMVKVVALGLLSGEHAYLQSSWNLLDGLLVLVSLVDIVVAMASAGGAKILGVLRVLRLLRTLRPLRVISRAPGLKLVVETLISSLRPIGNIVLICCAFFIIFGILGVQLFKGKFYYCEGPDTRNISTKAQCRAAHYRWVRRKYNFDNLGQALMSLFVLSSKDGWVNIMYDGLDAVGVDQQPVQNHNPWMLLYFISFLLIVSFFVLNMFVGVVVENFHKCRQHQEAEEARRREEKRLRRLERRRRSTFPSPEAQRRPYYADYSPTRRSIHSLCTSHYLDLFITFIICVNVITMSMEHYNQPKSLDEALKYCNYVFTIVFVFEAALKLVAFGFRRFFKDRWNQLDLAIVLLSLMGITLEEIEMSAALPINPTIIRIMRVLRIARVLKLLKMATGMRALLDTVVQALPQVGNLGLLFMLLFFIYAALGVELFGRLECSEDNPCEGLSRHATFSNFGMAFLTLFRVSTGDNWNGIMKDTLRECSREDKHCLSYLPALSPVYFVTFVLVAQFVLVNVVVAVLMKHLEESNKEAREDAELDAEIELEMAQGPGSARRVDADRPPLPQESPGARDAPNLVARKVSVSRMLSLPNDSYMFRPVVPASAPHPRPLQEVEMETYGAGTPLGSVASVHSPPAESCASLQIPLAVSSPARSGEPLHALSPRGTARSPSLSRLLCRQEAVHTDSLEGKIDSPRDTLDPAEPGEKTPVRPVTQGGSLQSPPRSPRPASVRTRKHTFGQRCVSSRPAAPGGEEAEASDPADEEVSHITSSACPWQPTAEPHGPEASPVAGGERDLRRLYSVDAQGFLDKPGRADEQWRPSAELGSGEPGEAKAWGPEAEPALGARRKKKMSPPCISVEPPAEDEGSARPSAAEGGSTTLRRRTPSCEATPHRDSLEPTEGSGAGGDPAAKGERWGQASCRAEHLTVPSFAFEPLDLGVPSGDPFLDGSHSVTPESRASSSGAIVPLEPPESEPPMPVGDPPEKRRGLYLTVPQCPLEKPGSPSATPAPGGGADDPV
Transient receptor potential cation channel subfamily V member 1 (Homo sapiens), sequence (Q8NER1 whole entry): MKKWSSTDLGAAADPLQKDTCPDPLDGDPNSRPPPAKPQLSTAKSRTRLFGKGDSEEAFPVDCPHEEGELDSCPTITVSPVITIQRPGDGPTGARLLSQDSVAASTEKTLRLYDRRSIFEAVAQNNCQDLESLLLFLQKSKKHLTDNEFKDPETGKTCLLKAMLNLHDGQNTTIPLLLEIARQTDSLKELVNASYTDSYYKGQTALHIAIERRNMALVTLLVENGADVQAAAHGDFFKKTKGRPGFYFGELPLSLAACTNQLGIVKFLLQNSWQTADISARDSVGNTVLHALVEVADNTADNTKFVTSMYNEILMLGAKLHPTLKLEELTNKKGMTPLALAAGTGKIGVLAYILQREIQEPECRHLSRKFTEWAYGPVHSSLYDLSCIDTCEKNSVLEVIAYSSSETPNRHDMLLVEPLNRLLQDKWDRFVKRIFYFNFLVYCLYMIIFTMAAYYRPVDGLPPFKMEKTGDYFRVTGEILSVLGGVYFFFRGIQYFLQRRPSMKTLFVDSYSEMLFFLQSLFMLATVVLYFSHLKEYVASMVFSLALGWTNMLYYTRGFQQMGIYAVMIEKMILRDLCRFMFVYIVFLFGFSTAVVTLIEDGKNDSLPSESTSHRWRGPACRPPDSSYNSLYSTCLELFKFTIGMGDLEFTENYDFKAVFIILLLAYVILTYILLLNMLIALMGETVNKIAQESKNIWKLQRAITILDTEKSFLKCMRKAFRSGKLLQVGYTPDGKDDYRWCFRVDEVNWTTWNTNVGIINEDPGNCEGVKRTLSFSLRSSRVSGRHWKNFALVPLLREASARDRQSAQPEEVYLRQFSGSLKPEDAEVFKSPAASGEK
T1 sequence (P10635 whole entry): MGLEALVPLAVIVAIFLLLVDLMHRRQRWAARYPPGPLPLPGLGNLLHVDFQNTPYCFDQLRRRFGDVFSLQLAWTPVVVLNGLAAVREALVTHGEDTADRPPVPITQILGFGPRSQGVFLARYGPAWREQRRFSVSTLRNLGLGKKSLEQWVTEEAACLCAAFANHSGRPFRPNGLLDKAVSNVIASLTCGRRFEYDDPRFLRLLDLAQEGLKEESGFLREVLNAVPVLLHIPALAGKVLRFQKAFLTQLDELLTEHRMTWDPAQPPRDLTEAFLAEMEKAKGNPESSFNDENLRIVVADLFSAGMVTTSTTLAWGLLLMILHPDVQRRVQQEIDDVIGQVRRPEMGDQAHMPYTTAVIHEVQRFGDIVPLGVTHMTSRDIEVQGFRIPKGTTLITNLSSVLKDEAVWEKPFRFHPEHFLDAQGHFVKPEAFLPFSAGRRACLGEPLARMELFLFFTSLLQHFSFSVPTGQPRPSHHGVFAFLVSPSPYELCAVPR
Cytochrome P450 3A4, sequence (P08684 whole entry): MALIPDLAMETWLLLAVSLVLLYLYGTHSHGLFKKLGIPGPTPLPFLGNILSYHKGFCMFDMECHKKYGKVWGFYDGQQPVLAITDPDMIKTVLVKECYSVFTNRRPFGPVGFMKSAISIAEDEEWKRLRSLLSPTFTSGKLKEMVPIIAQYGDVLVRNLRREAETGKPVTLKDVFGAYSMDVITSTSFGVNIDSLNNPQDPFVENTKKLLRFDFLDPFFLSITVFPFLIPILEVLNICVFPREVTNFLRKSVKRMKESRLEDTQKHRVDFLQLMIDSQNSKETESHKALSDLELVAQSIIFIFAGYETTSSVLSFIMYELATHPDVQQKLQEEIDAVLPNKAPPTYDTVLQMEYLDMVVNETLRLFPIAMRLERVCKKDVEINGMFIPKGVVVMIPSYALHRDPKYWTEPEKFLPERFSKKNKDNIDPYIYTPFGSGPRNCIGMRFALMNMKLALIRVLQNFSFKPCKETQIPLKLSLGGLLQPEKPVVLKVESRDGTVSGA

Compound: CC(C)N1CC2(CCN(C(=O)Nc3ccc(F)c(F)c3)CC2)C1c1ccc(Cl)cc1 (centres undefined)
- Papp [1]: 18.7 ×10⁻⁶ cm/s
- INH [2]: 8.1 µM
- INH [3]: 0.9 µM
- inhibition [4]: 64%
- IC50 [5]: > 30000 nM
- IC50 [6]: > 30000 nM
- IC50 [7]: 340 nM
- IC50 [8]: > 30000 nM
- IC50 [9]: 174 nM

Compound: CC(C)N1CC2(CCN(C(=O)Nc3cc(F)cc(F)c3)CC2)C1c1ccc(Cl)cc1 (centres undefined)
- Papp [1]: > 7.34 ×10⁻⁶ cm/s
- INH [2]: 3.6 µM
- INH [3]: 0.9 µM
- inhibition [4]: 19.1%
- IC50 [5]: > 30000 nM
- IC50 [6]: > 30000 nM
- IC50 [7]: 328 nM
- IC50 [8]: > 30000 nM
- IC50 [9]: 138 nM

Compound: C[C@H](NC(=O)N1CCC2(CC1)C(=O)N(c1cccc(F)c1)C2c1ccc(Cl)cc1)c1ccc(F)cc1 (some centres undefined)
- fraction unbound [10]: 0.001
- inhibition [4]: 2.4%

Compound: O=C1N(c2cccc(Cl)c2)C(c2ccccn2)C12CCN(c1nc3cc(F)c(C(F)(F)F)cc3[nH]1)CC2 (centres undefined)
- inhibition [4]: 37.9%
- IC50 [7]: 63 nM
- IC50 [9]: 44 nM

Compound: O=C1N(c2ccc(F)c(Cl)c2)C(c2ccccn2)C12CCN(c1nc3ccc(Cl)cc3[nH]1)CC2 (centres undefined)
- inhibition [4]: 86.2%
- AUC [11]: 41.2 µM·h
- IC50 [7]: 71 nM
- IC50 [9]: 78 nM

Compound: O=C1N(c2ccc(F)c(Cl)c2)C(c2ccccn2)C12CCN(c1nc3cc(F)c(Cl)cc3[nH]1)CC2 (centres undefined)
- fraction unbound [10]: 0.002
- inhibition [4]: 8.6%
- IC50 [7]: 84 nM
- IC50 [9]: 60 nM

Compound: CN1C(=O)C2(CCN(C(=O)Nc3cc(F)cc(F)c3)CC2)C1c1ccc(Cl)cc1 (racemic)
- fraction unbound [10]: 0.034
- inhibition [4]: 20.7%
- IC50 [9]: 920 nM

Compound: CC(C)N1CC2(CCN(C(=O)Nc3cc(F)cc(F)c3)CC2)C1c1ccc(F)cc1 (racemic)
- inhibition [4]: 46.5%
- IC50 [7]: 995 nM
- IC50 [9]: 172 nM

Compound: CN1CC2(CCN(C(=O)Nc3cc(F)cc(F)c3)CC2)C1c1ccc(F)cc1 (racemic)
- fraction unbound [10]: 0.05
- inhibition [4]: 21.8%
- IC50 [9]: 410 nM

Compound: O=C(Nc1cc(F)cc(F)c1)N1CCC2(CC1)CN(C1CC1)C2c1ccc(Cl)cc1 (racemic)
- fraction unbound [10]: 0.002
- IC50 [9]: 398 nM

Compound: CC[C@H](C)[C@H](NC(=O)N1CCC2(CC1)CN(C(C)C)C2c1ccc(Cl)cc1)C(=O)OC (stereo in doubt; 2)
- Papp [1]: 13.4 ×10⁻⁶ cm/s
- INH [2]: 8.1 µM
- INH [3]: 0.9 µM
- IC50 [5]: > 30000 nM
- IC50 [6]: > 30000 nM
- IC50 [7]: 123 nM
- IC50 [8]: > 30000 nM
- IC50 [9]: 104 nM

Compound: O=C(Nc1cc(F)cc(F)c1)N1CCC2(CC1)CN(c1ccc(F)c(Cl)c1)C2c1ccccn1 (stereo in doubt; 38a)
- PPB [12]: 99.9%
- IC50 [7]: 41 nM
- IC50 [9]: 60 nM

Compound: O=C(Nc1cc(F)cc(F)c1)N1CCC2(CC1)CN(c1ccc(F)c(Cl)c1)C2c1ccccn1 (stereo in doubt; 38b)
- fraction unbound [10]: 0.001
- IC50 [9]: 291 nM

Compound: O=C(Nc1cc(F)cc(F)c1)N1CCC2(CC1)C(=O)N(c1ccc(F)c(Cl)c1)C2c1ccccn1 (stereo in doubt; 39a) [listing 1 of 2 here]
- concentration [13]: 3.4 µM
- fraction unbound [10]: 0.004
- fraction unbound [14]: 0.001
- IC50 [7]: 42 nM
- IC50 [9]: 4 nM

Compound: O=C(Nc1cc(F)cc(F)c1)N1CCC2(CC1)C(=O)N(c1ccc(F)c(Cl)c1)C2c1ccccn1 (stereo in doubt; 39a) [listing 2 of 2 here]
- inhibition [15]: inactive

Compound: O=C(Nc1cc(F)cc(F)c1)N1CCC2(CC1)C(=O)N(c1ccc(F)c(Cl)c1)C2c1ccccn1 (stereo in doubt; 39b)
- inhibition [16]: inactive
- inhibition [17]: inactive

Compound: O=C(Nc1ccc(F)c(F)c1)N1CCC2(CC1)C(=O)N(c1ccc(F)c(Cl)c1)C2c1ccccn1 (stereo in doubt; 40a)
- fraction unbound [10]: 0.004
- IC50 [7]: 17700 nM
- IC50 [9]: 41 nM

Compound: O=C(Nc1cccc(C(F)(F)F)c1)N1CCC2(CC1)C(=O)N(c1ccc(F)c(F)c1)C2c1ccccn1 (stereo in doubt; 41a)
- inhibition [18]: inactive

Compound: O=C(Nc1ccc(F)c(F)c1)N1CCC2(CC1)C(=O)N(c1cccc(Cl)c1)C2c1ccccn1 (stereo in doubt; 42a) [listing 1 of 2 here]
- PPB [12]: 98.8%
- fraction unbound [14]: 0.001

Compound: O=C(Nc1ccc(F)c(F)c1)N1CCC2(CC1)C(=O)N(c1cccc(Cl)c1)C2c1ccccn1 (stereo in doubt; 42a) [listing 2 of 2 here]
- inhibition [18]: inactive
- inhibition [4]: 82.7%

Compound: O=C(Nc1ccc(F)c(F)c1)N1CCC2(CC1)C(=O)N(c1cccc(Cl)c1)C2c1ccccn1 (stereo in doubt; 42b)
- PPB [12]: 99.9%
- IC50 [9]: 652 nM

Compound: N#Cc1cccc(NC(=O)N2CCC3(CC2)C(=O)N(c2cccc(Cl)c2)C3c2ccccn2)c1 (stereo in doubt; 43a)
- PPB [12]: 99.2%
- fraction unbound [14]: 0.013
- IC50 [9]: 57 nM

Compound: N#Cc1cccc(NC(=O)N2CCC3(CC2)C(=O)N(c2cccc(Cl)c2)C3c2ccccn2)c1 (stereo in doubt; 43b) [listing 1 of 2 here]
- fraction unbound [10]: 0.012
- IC50 [9]: 855 nM

Compound: N#Cc1cccc(NC(=O)N2CCC3(CC2)C(=O)N(c2cccc(Cl)c2)C3c2ccccn2)c1 (stereo in doubt; 43b) [listing 2 of 2 here]
- inhibition [18]: inactive
- inhibition [4]: 25%

Compound: O=C(Nc1cc(F)cc(F)c1)N1CCC2(CC1)C(=O)N(c1cccc(Cl)c1)C2c1ccccn1 (stereo in doubt; 44a)
- PPB [12]: 98.9%
- fraction unbound [14]: 0.003
- IC50 [7]: 3490 nM
- IC50 [9]: 18 nM

Compound: O=C(Nc1cc(F)cc(F)c1)N1CCC2(CC1)C(=O)N(c1cccc(Cl)c1)C2c1ccccn1 (stereo in doubt; 44b) [listing 1 of 2 here]
- PPB [12]: 99.5%
- IC50 [9]: 200 nM

Compound: O=C(Nc1cc(F)cc(F)c1)N1CCC2(CC1)C(=O)N(c1cccc(Cl)c1)C2c1ccccn1 (stereo in doubt; 44b) [listing 2 of 2 here]
- inhibition [19]: inactive
- inhibition [18]: inactive
- inhibition [4]: 36%

Compound: O=C1N(c2ccc(F)c(Cl)c2)C(c2ccccn2)C12CCN(c1nc3cc(F)c(C(F)(F)F)cc3[nH]1)CC2 (stereo in doubt; 52a) [listing 1 of 2 here]
- concentration [13]: 3.4 µM
- AUC [11]: 0.814 µM·h
- IC50 [9]: 29 nM

Compound: O=C1N(c2ccc(F)c(Cl)c2)C(c2ccccn2)C12CCN(c1nc3cc(F)c(C(F)(F)F)cc3[nH]1)CC2 (stereo in doubt; 52a) [listing 2 of 2 here]
- inhibition [17]: inactive
- inhibition [4]: 92%

Compound: O=C1N(c2ccc(F)c(Cl)c2)C(c2ccccn2)C12CCN(c1nc3cc(F)c(C(F)(F)F)cc3[nH]1)CC2 (stereo in doubt; 52b) [listing 1 of 2 here]
- IC50 [7]: 106 nM
- IC50 [9]: 31 nM

Compound: O=C1N(c2ccc(F)c(Cl)c2)C(c2ccccn2)C12CCN(c1nc3cc(F)c(C(F)(F)F)cc3[nH]1)CC2 (stereo in doubt; 52b) [listing 2 of 2 here]
- inhibition [17]: inactive
- inhibition [4]: 59.8%

Compound: O=C(Nc1cccc(C(F)(F)F)c1)N1CCC2(CC1)C(=O)N(c1ccc(F)c(F)c1)C2c1ccccn1 (stereo in doubt; 411b)
- fraction unbound [10]: 0.005
- concentration [20]: 2.1 µM
- IC50 [7]: 283 nM
- IC50 [9]: 176 nM

Compound: O=C(Nc1ccc(F)c(F)c1)N1CCC2(CC1)C(=O)N(c1cccc(Cl)c1)C2c1cccc[n+]1[O-] (stereo in doubt; form 1)
- fraction unbound [10]: 0.066
- IC50 [9]: 698 nM
